Assay results: patent US20250255867A1 (Kadmon Corporation, LLC, priority 2022, published 2025)

CC(C)NC(=O)COc1cccc(-c2nc(Nc3ccc4[nH]ncc4c3)c3ccccc3n2)c1 [Belumosudil, 2-{3-[4-(1H-indazol-5-ylamino)-2-quinazolinyl]phenoxy}-N-(propan-2-yl) acetamide]
0/16: Abdominal distension: Affected/At Risk (Cohort 2 200 mg BID) | Acute respiratory distress syndrome: Affected/At Risk (Cohort 2 200 mg BID) | Adrenal insufficiency: Affected/At Risk (Cohort 2 200 mg BID) | Anal incontinence: Affected/At Risk (Cohort 2 200 mg BID) | Atelectasis: Affected/At Risk (Cohort 2 200 mg BID) | Benign prostatic hyperplasia: Affected/At Risk (Cohort 2 200 mg BID) | Blepharitis: Affected/At Risk (Cohort 2 200 mg BID) | Blood cholesterol increased: Affected/At Risk (Cohort 2 200 mg BID) | Blood creatine phosphokinase increased: Affected/At Risk (Cohort 2 200 mg BID) | Blood loss anaemia: Affected/At Risk (Cohort 2 200 mg BID) | Bronchitis: Affected/At Risk (Cohort 2 200 mg BID) | Bronchoscopy: Affected/At Risk (Cohort 2 200 mg BID) | Catheter site haemorrhage: Affected/At Risk (Cohort 2 200 mg BID) | Chronic kidney disease: Affected/At Risk (Cohort 2 200 mg BID)
1: White blood cell count decreased: # Events (Cohort 1 200 mg QD) | Cough all grade, No. (Cohort 1 200 mg QD n=17) | Dyspnea grade ≥3, No. (Cohort 1 200 mg QD n=17) | Hypoxia grade ≥3, No. (Cohort 1 200 mg QD n=17) | Lung infection or pneumonia grade ≥3, No. (Cohort 1 200 mg QD n=17) | Abdominal pain upper: # Events (Cohort 2 200 mg BID) | Actinic keratosis: # Events (Cohort 2 200 mg BID) | Arthralgia: # Events (Cohort 2 200 mg BID) | Asthenia: # Events (Cohort 2 200 mg BID) | Balance disorder: # Events (Cohort 2 200 mg BID) | Basal cell carcinoma: # Events (Cohort 2 200 mg BID) | Blood alkaline phosphatase increased: # Events (Cohort 2 200 mg BID) | Blood chloride decreased: # Events (Cohort 2 200 mg BID) | Blood creatine increased: # Events (Cohort 2 200 mg BID) | Blood creatinine increased: # Events (Cohort 2 200 mg BID) | Bronchial secretion retention: # Events (Cohort 2 200 mg BID) | Chills: # Events (Cohort 2 200 mg BID) | Conjunctival haemorrhage: # Events (Cohort 2 200 mg BID) | Conjunctivitis: # Events (Cohort 2 200 mg BID)
(0%): Abdominal distension: Affected/At Risk (%) (Cohort 2 200 mg BID) | Acute respiratory distress syndrome: Affected/At Risk (%) (Cohort 2 200 mg BID) | Adrenal insufficiency: Affected/At Risk (%) (Cohort 2 200 mg BID) | Anal incontinence: Affected/At Risk (%) (Cohort 2 200 mg BID) | Atelectasis: Affected/At Risk (%) (Cohort 2 200 mg BID) | Benign prostatic hyperplasia: Affected/At Risk (%) (Cohort 2 200 mg BID) | Blepharitis: Affected/At Risk (%) (Cohort 2 200 mg BID) | Blood cholesterol increased: Affected/At Risk (%) (Cohort 2 200 mg BID) | Blood creatine phosphokinase increased: Affected/At Risk (%) (Cohort 2 200 mg BID) | Blood loss anaemia: Affected/At Risk (%) (Cohort 2 200 mg BID) | Bronchitis: Affected/At Risk (%) (Cohort 2 200 mg BID) | Bronchoscopy: Affected/At Risk (%) (Cohort 2 200 mg BID) | Catheter site haemorrhage: Affected/At Risk (%) (Cohort 2 200 mg BID) | Chronic kidney disease: Affected/At Risk (%) (Cohort 2 200 mg BID)
11: ALT/AST increased all grade, No. (Cohort 1 200 mg QD n=17)
8: Drug-related AE, No. (Cohort 1 200 mg QD n=17) | Anaemia: # Events (Cohort 2 200 mg BID)
2: ALT/AST increased grade ≥3, No. (Cohort 1 200 mg QD n=17) | Anemia grade ≥3, No. (Cohort 1 200 mg QD n=17) | Hyperglycemia grade ≥3, No. (Cohort 1 200 mg QD n=17) | Acute kidney injury: # Events (Cohort 2 200 mg BID) | Aspartate aminotransferase increased: # Events (Cohort 2 200 mg BID) | Back pain: # Events (Cohort 2 200 mg BID)
1/17: White blood cell count decreased: Affected/At Risk (Cohort 1 200 mg QD)
(12.5%): Abdominal pain: Affected/At Risk (%) (Cohort 2 200 mg BID) | Acute kidney injury: Affected/At Risk (%) (Cohort 2 200 mg BID) | Anxiety: Affected/At Risk (%) (Cohort 2 200 mg BID) | Aspartate aminotransferase increased: Affected/At Risk (%) (Cohort 2 200 mg BID) | Back pain: Affected/At Risk (%) (Cohort 2 200 mg BID) | Blister: Affected/At Risk (%) (Cohort 2 200 mg BID)
(18.75%): Alanine aminotransferase increased: Affected/At Risk (%) (Cohort 2 200 mg BID)
(5.88%): Weight decreased: Affected/At Risk (%) (Cohort 1 200 mg QD) | White blood cell count decreased: Affected/At Risk (%) (Cohort 1 200 mg QD)
1/16: Abdominal pain upper: Affected/At Risk (Cohort 2 200 mg BID) | Actinic keratosis: Affected/At Risk (Cohort 2 200 mg BID) | Arthralgia: Affected/At Risk (Cohort 2 200 mg BID) | Asthenia: Affected/At Risk (Cohort 2 200 mg BID) | Balance disorder: Affected/At Risk (Cohort 2 200 mg BID) | Basal cell carcinoma: Affected/At Risk (Cohort 2 200 mg BID) | Blood alkaline phosphatase increased: Affected/At Risk (Cohort 2 200 mg BID) | Blood chloride decreased: Affected/At Risk (Cohort 2 200 mg BID) | Blood creatine increased: Affected/At Risk (Cohort 2 200 mg BID) | Blood creatinine increased: Affected/At Risk (Cohort 2 200 mg BID) | Bronchial secretion retention: Affected/At Risk (Cohort 2 200 mg BID) | Chills: Affected/At Risk (Cohort 2 200 mg BID) | Conjunctival haemorrhage: Affected/At Risk (Cohort 2 200 mg BID) | Conjunctivitis: Affected/At Risk (Cohort 2 200 mg BID)
0: Death, No. (Cohort 1 200 mg QD n=17) | Drug-related SAE, No. (Cohort 1 200 mg QD n=17) | Abdominal distension: # Events (Cohort 2 200 mg BID) | Acute respiratory distress syndrome: # Events (Cohort 2 200 mg BID) | Adrenal insufficiency: # Events (Cohort 2 200 mg BID) | Anal incontinence: # Events (Cohort 2 200 mg BID) | Atelectasis: # Events (Cohort 2 200 mg BID) | Benign prostatic hyperplasia: # Events (Cohort 2 200 mg BID) | Blepharitis: # Events (Cohort 2 200 mg BID) | Blood cholesterol increased: # Events (Cohort 2 200 mg BID) | Blood creatine phosphokinase increased: # Events (Cohort 2 200 mg BID) | Blood loss anaemia: # Events (Cohort 2 200 mg BID) | Bronchitis: # Events (Cohort 2 200 mg BID) | Bronchoscopy: # Events (Cohort 2 200 mg BID) | Catheter site haemorrhage: # Events (Cohort 2 200 mg BID) | Chronic kidney disease: # Events (Cohort 2 200 mg BID)
(25%): Anaemia: Affected/At Risk (%) (Cohort 2 200 mg BID)
5: Hypertension all grade, No. (Cohort 1 200 mg QD n=17) | SAE, No. (Cohort 1 200 mg QD n=17)
3: Dyspnea all grade, No. (Cohort 1 200 mg QD n=17) | Peripheral edema all grade, No. (Cohort 1 200 mg QD n=17) | Anxiety: # Events (Cohort 2 200 mg BID) | Blister: # Events (Cohort 2 200 mg BID)
6: Diarrhea all grade, No. (Cohort 1 200 mg QD n=17) | Fatigue all grade, No. (Cohort 1 200 mg QD n=17) | Nausea all grade, No. (Cohort 1 200 mg QD n=17)
17: Any AE, No. of patients (Cohort 1 200 mg QD n=17)
(17.65%): Weight increased: Affected/At Risk (%) (Cohort 1 200 mg QD)
3/16: Alanine aminotransferase increased: Affected/At Risk (Cohort 2 200 mg BID)
2/16: Abdominal pain: Affected/At Risk (Cohort 2 200 mg BID) | Acute kidney injury: Affected/At Risk (Cohort 2 200 mg BID) | Anxiety: Affected/At Risk (Cohort 2 200 mg BID) | Aspartate aminotransferase increased: Affected/At Risk (Cohort 2 200 mg BID) | Back pain: Affected/At Risk (Cohort 2 200 mg BID) | Blister: Affected/At Risk (Cohort 2 200 mg BID)
4/16: Anaemia: Affected/At Risk (Cohort 2 200 mg BID)
4: Headache all grade, No. (Cohort 1 200 mg QD n=17) | Abdominal pain: # Events (Cohort 2 200 mg BID) | Alanine aminotransferase increased: # Events (Cohort 2 200 mg BID)
(6.25%): Abdominal pain upper: Affected/At Risk (%) (Cohort 2 200 mg BID) | Actinic keratosis: Affected/At Risk (%) (Cohort 2 200 mg BID) | Arthralgia: Affected/At Risk (%) (Cohort 2 200 mg BID) | Asthenia: Affected/At Risk (%) (Cohort 2 200 mg BID) | Balance disorder: Affected/At Risk (%) (Cohort 2 200 mg BID) | Basal cell carcinoma: Affected/At Risk (%) (Cohort 2 200 mg BID) | Blood alkaline phosphatase increased: Affected/At Risk (%) (Cohort 2 200 mg BID) | Blood chloride decreased: Affected/At Risk (%) (Cohort 2 200 mg BID) | Blood creatine increased: Affected/At Risk (%) (Cohort 2 200 mg BID) | Blood creatinine increased: Affected/At Risk (%) (Cohort 2 200 mg BID) | Bronchial secretion retention: Affected/At Risk (%) (Cohort 2 200 mg BID) | Chills: Affected/At Risk (%) (Cohort 2 200 mg BID) | Conjunctival haemorrhage: Affected/At Risk (%) (Cohort 2 200 mg BID)
3/17: Weight increased: Affected/At Risk (Cohort 1 200 mg QD)
63%: Patients with relative dose intensity >95% (Cohort 2)
9: Weight increased: # Events (Cohort 1 200 mg QD) | Grade ≥3 AE, No. (Cohort 1 200 mg QD n=17) | URI all grade, No. (Cohort 1 200 mg QD n=17)
